# Source: ChEMBL document CHEMBL4806963, “Antagonistic peptides for frizzled-1 and frizzled-2” (2013)
# Calls of active or inactive are those of the source. The calls are words filed in the database; no cut-off is given here. Where a SMILES comes first, the peptide text is derived from it.
# Columns and labels:
# [1] = target: Frizzled-2 (Rattus norvegicus) (UniProt Q08464); experiment: Antagonist activity at Wnt3a-stimulated rat frizzled-2 expressed in […] cells up to 10 uM incubated for 24 hrs by luciferase reporter gene assay; format: cell-based; details: dose microM <=10, time 24.0 hrs
# Frizzled-2 (Rattus norvegicus), sequence (Q08464 29-570 limits assumed): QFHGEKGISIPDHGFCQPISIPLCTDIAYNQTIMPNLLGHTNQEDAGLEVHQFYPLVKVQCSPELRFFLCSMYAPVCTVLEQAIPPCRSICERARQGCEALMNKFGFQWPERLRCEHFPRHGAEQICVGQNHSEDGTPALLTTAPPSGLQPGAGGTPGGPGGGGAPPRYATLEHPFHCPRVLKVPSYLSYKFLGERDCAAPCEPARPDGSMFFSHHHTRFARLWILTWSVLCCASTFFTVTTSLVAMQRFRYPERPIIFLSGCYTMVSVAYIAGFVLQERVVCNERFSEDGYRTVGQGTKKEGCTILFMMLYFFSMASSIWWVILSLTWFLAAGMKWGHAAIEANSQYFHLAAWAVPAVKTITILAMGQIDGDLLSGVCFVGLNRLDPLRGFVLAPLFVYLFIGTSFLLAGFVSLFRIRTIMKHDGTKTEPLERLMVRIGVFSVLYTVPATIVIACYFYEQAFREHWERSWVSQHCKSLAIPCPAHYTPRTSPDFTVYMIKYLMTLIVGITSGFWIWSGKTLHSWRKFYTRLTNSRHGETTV
# [2] = target: Frizzled-2 (Rattus norvegicus) (UniProt Q08464); experiment: Antagonist activity at Wnt3a-stimulated rat frizzled-2 expressed in African green monkey COS7 cells up to 10 uM incubated for 24 hrs by luciferase reporter gene assay; format: cell-based; details: dose microM <=10, time 24.0 hrs
# [3] = target: Frizzled-1 (Homo sapiens) (UniProt Q9UP38); experiment: Antagonist activity at Wnt3a-stimulaed frizzled-1 (unknown origin) expressed in human HEK293superTOP flash cells at 1 nM incubated for 24 hrs by luciferase reporter gene assay (reference value: 0%); format: functional, cell-based
# Frizzled-1 (Homo sapiens), sequence (Q9UP38 70-647 limits assumed): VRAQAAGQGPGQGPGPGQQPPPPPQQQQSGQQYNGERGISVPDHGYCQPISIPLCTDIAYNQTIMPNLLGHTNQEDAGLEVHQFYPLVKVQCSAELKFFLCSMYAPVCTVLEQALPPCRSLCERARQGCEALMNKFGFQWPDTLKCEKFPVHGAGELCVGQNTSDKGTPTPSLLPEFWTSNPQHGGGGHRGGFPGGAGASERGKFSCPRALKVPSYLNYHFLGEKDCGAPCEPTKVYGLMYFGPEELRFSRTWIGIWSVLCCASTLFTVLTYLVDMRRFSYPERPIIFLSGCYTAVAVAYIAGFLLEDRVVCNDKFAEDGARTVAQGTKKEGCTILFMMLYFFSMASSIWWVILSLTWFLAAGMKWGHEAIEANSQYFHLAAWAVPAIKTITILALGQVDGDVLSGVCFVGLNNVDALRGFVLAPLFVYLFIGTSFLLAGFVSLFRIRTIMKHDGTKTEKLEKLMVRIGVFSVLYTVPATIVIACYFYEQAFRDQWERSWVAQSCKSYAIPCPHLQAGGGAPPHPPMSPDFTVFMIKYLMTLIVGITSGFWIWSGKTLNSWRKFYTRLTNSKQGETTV
# [4] = target: Frizzled-2 (Homo sapiens) (UniProt Q14332); experiment: Antagonist activity at Wnt3a-stimulaed frizzled-2 (unknown origin) expressed in human HEK293superTOP flash cells at 1 nM incubated for 24 hrs by luciferase reporter gene assay (reference value: 0%); format: functional, cell-based
# Frizzled-2 (Homo sapiens), sequence (Q14332 24-565 limits assumed): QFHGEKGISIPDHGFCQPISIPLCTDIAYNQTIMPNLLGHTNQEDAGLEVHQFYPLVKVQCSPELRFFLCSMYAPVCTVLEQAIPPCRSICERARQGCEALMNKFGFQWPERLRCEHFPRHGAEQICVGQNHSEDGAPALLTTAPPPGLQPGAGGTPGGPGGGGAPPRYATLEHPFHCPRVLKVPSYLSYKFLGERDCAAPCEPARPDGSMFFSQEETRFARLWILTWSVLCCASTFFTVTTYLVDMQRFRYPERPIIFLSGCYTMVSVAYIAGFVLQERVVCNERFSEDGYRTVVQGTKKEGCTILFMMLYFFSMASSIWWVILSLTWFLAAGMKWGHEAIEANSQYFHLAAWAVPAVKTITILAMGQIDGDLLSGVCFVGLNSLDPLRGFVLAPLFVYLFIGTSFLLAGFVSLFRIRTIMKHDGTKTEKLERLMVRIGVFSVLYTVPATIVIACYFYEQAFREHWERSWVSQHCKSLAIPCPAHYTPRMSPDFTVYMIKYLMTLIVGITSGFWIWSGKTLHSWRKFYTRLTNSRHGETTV
# [5] = target: Frizzled-2 (Homo sapiens) (UniProt Q14332); experiment: Antagonist activity at Wnt3a-stimulated frizzled-2 (unknown origin) expressed in human HEK293superTOP flash cells at 10 nM incubated for 24 hrs by luciferase reporter gene assay; format: functional, cell-based; details: HEK293
# [6] = target: Frizzled-1 (Homo sapiens) (UniProt Q9UP38); experiment: Antagonist activity at Wnt3a-stimulated frizzled-1 (unknown origin) expressed in human HEK293superTOP flash cells at 10 nM incubated for 24 hrs by luciferase reporter gene assay; format: functional, cell-based; details: HEK293
# [7] = target: Frizzled-1 (Rattus norvegicus) (UniProt Q08463); experiment: Antagonist activity at Wnt3a-stimulated rat frizzled-1 expressed in CHO cells up to 10 uM incubated for 24 hrs by luciferase reporter gene assay; format: cell-based; details: dose microM <=10, time 24.0 hrs
# Frizzled-1 (Rattus norvegicus), sequence (Q08463 whole entry): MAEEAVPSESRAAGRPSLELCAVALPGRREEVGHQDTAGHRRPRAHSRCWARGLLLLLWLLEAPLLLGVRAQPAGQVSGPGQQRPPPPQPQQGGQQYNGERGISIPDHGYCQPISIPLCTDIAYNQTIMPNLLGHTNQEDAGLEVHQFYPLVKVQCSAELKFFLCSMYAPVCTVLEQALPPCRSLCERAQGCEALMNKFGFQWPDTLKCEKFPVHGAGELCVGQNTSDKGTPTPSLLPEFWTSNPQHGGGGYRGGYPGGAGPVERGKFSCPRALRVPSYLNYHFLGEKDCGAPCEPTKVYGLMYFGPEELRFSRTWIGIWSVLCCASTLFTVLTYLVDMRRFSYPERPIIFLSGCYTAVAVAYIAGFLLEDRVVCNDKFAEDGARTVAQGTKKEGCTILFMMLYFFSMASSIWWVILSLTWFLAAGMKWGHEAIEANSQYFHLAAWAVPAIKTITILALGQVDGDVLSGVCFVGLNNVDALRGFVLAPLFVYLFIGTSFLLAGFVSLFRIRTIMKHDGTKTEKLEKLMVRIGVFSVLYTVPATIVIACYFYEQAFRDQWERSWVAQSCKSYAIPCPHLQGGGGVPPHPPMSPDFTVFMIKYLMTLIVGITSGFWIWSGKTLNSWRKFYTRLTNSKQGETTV
# [8] = target: Frizzled-1 (Rattus norvegicus) (UniProt Q08463); experiment: Antagonist activity at Wnt3a-stimulated rat frizzled-1 expressed in African green monkey COS7 cells up to 10 uM incubated for 24 hrs by luciferase reporter gene assay; format: cell-based; details: dose microM <=10, time 24.0 hrs
SMILES,inhibition [1],inhibition [2],"inhibition ([3]; HEK293, filed as antagonist)","inhibition ([4]; HEK293, filed as antagonist)",inhibition [5],inhibition [6],inhibition [7],inhibition [8],inhibition ([3]; HEK293),inhibition ([4]; HEK293)
CSCC[C@H](NC(=O)CNC(=O)[C@H](CCC(=O)O)NC(=O)[C@H](CO)NC(=O)[C@@H](NC(=O)[C@H](CCCCN)NC(=O)[C@H](C)NC(=O)[C@H](CS)NC(C)=O)[C@@H](C)O)C(=O)N[C@@H](CC(=O)O)C(=O)NCC(=O)N[C@@H](CS)C(=O)N[C@@H](CCC(=O)O)C(=O)N[C@@H](CC(C)C)C(N)=O (Ac-CAKTSEGMDGCEL-NH2),inactive,inactive,68%,79.5%,inactive,inactive,inactive,inactive,–,–
CSCC[C@H](NC(=O)CNC(=O)[C@H](CCC(=O)O)NC(=O)[C@H](CO)NC(=O)[C@@H](NC(=O)[C@H](C)NC(=O)[C@H](CC(N)=O)NC(=O)[C@H](CS)NC(C)=O)[C@@H](C)O)C(=O)N[C@@H](CC(=O)O)C(=O)NCC(=O)N[C@@H](CS)C(=O)N[C@@H](CCC(=O)O)C(=O)N[C@@H](CC(C)C)C(N)=O (Ac-CNATSEGMDGCEL-NH2),inactive,inactive,70.8%,84.9%,inactive,inactive,inactive,inactive,–,–
CSCC[C@H](NC(=O)[C@H](C)NC(=O)[C@H](CCC(=O)O)NC(=O)[C@H](CO)NC(=O)[C@H](C)NC(=O)[C@H](CCCCN)NC(=O)[C@H](CC(N)=O)NC(=O)[C@H](CS)NC(C)=O)C(=O)N[C@@H](C)C(=O)NCC(=O)N[C@@H](CS)C(=O)N[C@@H](CCC(=O)O)C(=O)N[C@@H](CC(C)C)C(N)=O (Ac-CNKASEAMAGCEL-NH2),inactive,inactive,–,–,inactive,inactive,inactive,inactive,11.2%,17.5%
CSCC[C@H](NC(=O)CNC(=O)[C@H](CCC(=O)O)NC(=O)[C@H](CO)NC(=O)[C@H](C)NC(=O)[C@H](CCCCN)NC(=O)[C@H](CC(N)=O)NC(=O)[C@H](CS)NC(C)=O)C(=O)N[C@@H](CC(=O)O)C(=O)NCC(=O)N[C@@H](CS)C(=O)N[C@@H](CCC(=O)O)C(=O)N[C@@H](CC(C)C)C(N)=O (Ac-CNKASEGMDGCEL-NH2),inactive,inactive,–,59.4%,inactive,inactive,inactive,inactive,28.1%,–
CSCC[C@H](NC(=O)CNC(=O)[C@H](CCC(=O)O)NC(=O)[C@H](C)NC(=O)[C@@H](NC(=O)[C@H](CCCCN)NC(=O)[C@H](CC(N)=O)NC(=O)[C@H](CS)NC(C)=O)[C@@H](C)O)C(=O)N[C@@H](CC(=O)O)C(=O)NCC(=O)N[C@@H](CS)C(=O)N[C@@H](CCC(=O)O)C(=O)N[C@@H](CC(C)C)C(N)=O (Ac-CNKTAEGMDGCEL-NH2),inactive,inactive,74.3%,87.3%,inactive,inactive,inactive,inactive,–,–
CSCC[C@H](NC(=O)CNC(=O)[C@H](C)NC(=O)[C@H](CO)NC(=O)[C@@H](NC(=O)[C@H](CCCCN)NC(=O)[C@H](CC(N)=O)NC(=O)[C@H](CS)NC(C)=O)[C@@H](C)O)C(=O)N[C@@H](CC(=O)O)C(=O)NCC(=O)N[C@@H](CS)C(=O)N[C@@H](CCC(=O)O)C(=O)N[C@@H](CC(C)C)C(N)=O (Ac-CNKTSAGMDGCEL-NH2),inactive,inactive,70.8%,84.7%,inactive,inactive,inactive,inactive,–,–
